Drawing on ChEMBL document CHEMBL3507680, “University of Dundee, Gates Library screen for HepG2 cell viability”, this text covers cytotoxicity for 74 molecules.

The data set can be described thus: Human HepG2 cell viability assay in 384 well format. Type of data set: toxicity, cell-based. Also on record: dose 125 nL, time 70.5 hour; cytotoxicity at 70.5 h: concentration not given beside the values. The conditions noted are these: HepG2 cells, read-out: Inhibition.
Turning to `O=C(c1cc(C2CCCC2)no1)N1CCCCC1`, the cytotoxicity at 70.5 h was -15.8%.

As for `NC(c1ccccc1)c1ccc(OC(F)F)cc1` (centres undefined), the cytotoxicity at 70.5 h is 6.42%.

As to `CC(C)c1noc(CCC(=O)Nc2cc(F)ccc2F)n1`, the cytotoxicity at 70.5 h was determined as 12.9%.

With `CC(C)c1noc(C[S+]([O-])CC(=O)Nc2cc(F)ccc2F)n1` (centres undefined), the cytotoxicity at 70.5 h was -3.52%.

With `Cc1ccc(NC(=O)C2CCCN2C(=O)C2CC2)nc1` (centres undefined), the cytotoxicity at 70.5 h is -3.51%.

`O=C(CCOc1ccccc1)NS(=O)(=O)Cc1ccccc1`: the cytotoxicity at 70.5 h is -5.31%.

Regarding `COCCNC(=O)CN1CCN(c2nc3cc(C)ccc3o2)CC1`, the cytotoxicity at 70.5 h is -1.86%.

For `Cc1ccc(CN(C)C(=O)NCC(=O)NC(C)(C)C)s1`, the cytotoxicity at 70.5 h was -3.18%.

On to `O=C1CC(C(=O)Nc2nnc(-c3ccoc3)[nH]2)c2ccccc2N1` (centres undefined), for which the cytotoxicity at 70.5 h is 0.202%.

As for `O=C(c1cscn1)N(CCCO)S(=O)(=O)c1cccs1`, the cytotoxicity at 70.5 h came out at 0.658%.

For the molecule `CCNC(=O)NC1CCC(Oc2ccccc2C#N)CC1` (centres undefined), the cytotoxicity at 70.5 h stood at 9.88%.

Regarding `COc1cc(Br)cc(CNC2CCCNC2=O)c1O` (centres undefined), the cytotoxicity at 70.5 h turned out to be 2.96%.

As for `Cc1ncc(S(=O)(=O)Nc2ccnn2C2CCCCC2)[nH]1`, the cytotoxicity at 70.5 h is -1.01%.

With `COC(C)c1cccc(NCc2cccs2)c1` (centres undefined), the cytotoxicity at 70.5 h was -3.58%.

In the case of `CN(C)C1(C(=O)NC2CCC(Oc3ccccc3C#N)CC2)CCC1` (centres undefined), the cytotoxicity at 70.5 h is -4.33%.

In the case of `COCCN1CCN(CC2(O)CCCCC2)CC1`, the cytotoxicity at 70.5 h is -0.488%.

For the molecule `Cc1cc(C2CCCN(C(=O)COc3ccc(F)cc3)C2)n[nH]1` (centres undefined), the cytotoxicity at 70.5 h was -8.58%.

As to `COCCN(C)CC1CCCN1S(=O)(=O)c1cc(C)oc1C` (centres undefined), the cytotoxicity at 70.5 h was -4.11%.

Turning to `Cc1cc(C)n(CC2CCN(CC(O)Cn3cccn3)CC2)n1` (centres undefined), the cytotoxicity at 70.5 h is -1.67%.

As for `Cc1cc(C2CCCN(Cc3noc(Cc4ccccc4)n3)C2)n[nH]1` (centres undefined), the cytotoxicity at 70.5 h was -1%.

Regarding `Cc1cc(C)c2cc(C(=O)N3CCNC(=O)C3)[nH]c2c1`, the cytotoxicity at 70.5 h is -8%.

`CCCn1nnnc1COC(=O)C1COc2ccc(Cl)cc2C1` (centres undefined): the cytotoxicity at 70.5 h is -5.74%.

In the case of `CC(C(=O)Nc1nccs1)N(C)Cc1cccc(C#N)c1` (centres undefined), the cytotoxicity at 70.5 h was -11.6%.

With `CCOc1ccccc1CCC(=O)Nc1c(C)nn(C)c1C`, the cytotoxicity at 70.5 h came to 14.5%.

As for `COC1CCN(c2ccc(F)cc2CN(C)C(=O)c2cc[nH]n2)CC1`, the cytotoxicity at 70.5 h is -13.3%.

As to `Cc1nnc2n1CCN(C(=O)C(C)Oc1ccc(C#N)cc1)C2` (centres undefined), the cytotoxicity at 70.5 h is -12.4%.

Regarding `CCN(C(=O)CS(=O)(=O)c1cc(OC)c(OC)cc1C)C1CC1`, the cytotoxicity at 70.5 h is -8.45%.

As to `COc1cc(C)c(S(=O)(=O)CC(=O)N(C)C2CC2)cc1OC`, the cytotoxicity at 70.5 h is 15.2%.

As to `CCc1oc(C(=O)N[C@@H]2c3ccccc3C[C@@H]2O)cc1C`, the cytotoxicity at 70.5 h is -5.26%.

As to `COc1ccc(CN(C)Cc2c(C)noc2C)c(Br)c1OC`, the cytotoxicity at 70.5 h was -8.43%.

Regarding `COCc1cccc(NCc2cccnc2)c1`, the cytotoxicity at 70.5 h was -10.4%.

In the case of `COc1ccc(CN(C)Cc2c(C)noc2C)c(Cl)c1OC`, the cytotoxicity at 70.5 h is -8.81%.

`CCCN1CCC(N(C)CCC(=O)Nc2ccccc2SC)CC1`: the cytotoxicity at 70.5 h is 1.62%.

Consider `O=C1CCCN1CCN1CCC(c2ccn[nH]2)CC1`, for which the cytotoxicity at 70.5 h was -7.63%.

Take `Cc1nc(-c2ccc(CC(=O)N3CCN(C(=O)C(C)C)CC3)cc2)cs1`: the cytotoxicity at 70.5 h was -1.97%.

Regarding `Cc1nc(-c2ccc(CC(=O)N3CCN(C(=O)C4CC4)CC3)cc2)cs1`, the cytotoxicity at 70.5 h was -1.62%.

As for `CC(=O)N1CCC(NC(=O)c2cc(Cl)ccc2-n2cnnn2)CC1`, the cytotoxicity at 70.5 h was -6.61%.

Consider `O=C(NC1CCN(C2CC2)CC1)c1cc(Cl)ccc1-n1cnnn1`, for which the cytotoxicity at 70.5 h amounted to 8.23%.

Take `COc1ccc(C2CCCN2C(=O)c2ccc(=O)n(C)c2)cc1OC` (centres undefined): the cytotoxicity at 70.5 h is -6.18%.

For the molecule `COc1cccc(CNCc2c(C)nc3sc(C)cn23)c1OC`, the cytotoxicity at 70.5 h was -1.69%.

As to `Cn1ccnc1CCNS(=O)(=O)c1ccc(Br)cc1`, the cytotoxicity at 70.5 h was 9.92%.

With `CC1CN(C(=O)C2(c3cccc(F)c3)CCOCC2)CCO1` (centres undefined), the cytotoxicity at 70.5 h was -3.81%.

With `O=C(c1ccc(CN2CCCC2)cc1)N1CCCC(n2cccn2)C1` (centres undefined), the cytotoxicity at 70.5 h was -5.06%.

With `CN(C)Cc1ccc(C(=O)N2CCCC(n3cccn3)C2)cc1` (centres undefined), the cytotoxicity at 70.5 h is 8.2%.

As for `CCN(CC)C(=O)CCNC(=O)c1c[nH]c2ccc(OC)cc12`, the cytotoxicity at 70.5 h came out at 1.48%.

With `CSc1ccc(CNC2(c3ccc(F)cc3)CCOCC2)cc1`, the cytotoxicity at 70.5 h is -3.89%.

Consider `CC(=O)N1CCC(NC(=O)c2cc(Cl)ccc2O)CC1`, for which the cytotoxicity at 70.5 h was -4.41%.

Regarding `Cc1nccn1CCCC(=O)Nc1nc(C(C)C)nn1C`, the cytotoxicity at 70.5 h is 10.2%.

For the molecule `Cc1nc(CNC(=O)NCCC2=CCCC2)oc1C`, the cytotoxicity at 70.5 h was 7.64%.

On to `CCc1nc2n(n1)CC(NCc1cn(C)nc1-c1cccnc1)CC2` (centres undefined), for which the cytotoxicity at 70.5 h was -4.07%.

As to `CCc1n[nH]c(C2CN(CC(=O)N(C)Cc3ccco3)CCO2)n1` (centres undefined), the cytotoxicity at 70.5 h is -11.1%.

For `O=C1CCCN1CCN1CCCC(c2ccn[nH]2)C1` (centres undefined), the cytotoxicity at 70.5 h worked out at 27.7%.

On to `O=C(NCCNS(=O)(=O)c1cccc(Cl)c1)C1CCCO1` (centres undefined), for which the cytotoxicity at 70.5 h stood at 6.97%.

For the molecule `Cc1nnc(CSc2ccc(C(F)(F)F)cn2)o1`, the cytotoxicity at 70.5 h was found to be 2.72%.

Turning to `Cc1noc(CSc2ccc(C(F)(F)F)cn2)n1`, the cytotoxicity at 70.5 h is -6.64%.

As for `COCCS(=O)(=O)Cc1nnnn1-c1ccccc1`, the cytotoxicity at 70.5 h is -2.53%.

As for `COc1ccnc(N2CCN(Cc3ncc(-c4ccccc4)o3)CC2)n1`, the cytotoxicity at 70.5 h came to 4.14%.

Turning to `CC(C(=O)N1CCN(CCOc2ccccc2)CC1)n1cncn1` (centres undefined), the cytotoxicity at 70.5 h came to 9.32%.

For the molecule `CCn1cnnc1CNC(=O)N(C)Cc1cccc(Cl)c1Cl`, the cytotoxicity at 70.5 h was -6.25%.

In the case of `CNS(=O)(=O)c1ccc(CNC(=O)Nc2ccccn2)s1`, the cytotoxicity at 70.5 h came to 3.18%.

For `Cc1n[nH]c(C)c1CNC(=O)NC1CCCCC1`, the cytotoxicity at 70.5 h was -8.57%.

With `Cc1noc(C)c1CN(C)Cc1csc(-c2ncccn2)n1`, the cytotoxicity at 70.5 h is -3.82%.

Regarding `CC(C)(C)OC(=O)N1CCC(NC2CCS(=O)(=O)C2)CC1` (centres undefined), the cytotoxicity at 70.5 h was -8.07%.

For the molecule `O=C(NCCCC(=O)N1Cc2ccccc2C1)NCc1cccnc1`, the cytotoxicity at 70.5 h was -0.375%.

With `CCN(CC)C(=O)Nc1ccc(N2CCSCC2)cc1C`, the cytotoxicity at 70.5 h amounted to 8.14%.

Consider `O=C(NCCCC(=O)N1Cc2ccccc2C1)NCc1nccs1`, for which the cytotoxicity at 70.5 h is -5.34%.

Turning to `Cc1csc(C2(NC(=O)NCCN3CCOCC3)CCCC2)n1`, the cytotoxicity at 70.5 h was -7.84%.

With `O=C(NCC1CCC2(CC1)OCCO2)c1ccncc1F`, the cytotoxicity at 70.5 h is -3.09%.

Take `Cc1c(CS(C)(=O)=O)cccc1NCC1CCCCC1`: the cytotoxicity at 70.5 h came out at 7.16%.

For `Cc1cc(C)nc(NC2CC(=O)N(C(C)(C)C)C2)n1` (centres undefined), the cytotoxicity at 70.5 h was 7.77%.

With `Cc1c(CS(C)(=O)=O)cccc1NCCCC1CCCC1`, the cytotoxicity at 70.5 h is -7.83%.

On to `Cc1cc(N2CCSCC2)ccc1NC(=O)N(CCO)C1CC1`, for which the cytotoxicity at 70.5 h was -5.59%.

For the molecule `Cc1nnc(C(C)NCC2(c3ccc(F)cc3)CCCCC2)o1` (centres undefined), the cytotoxicity at 70.5 h was -5.27%.

For the molecule `Cc1noc(C)c1CN1CCC(c2nc3cc(Cl)ccc3o2)CC1`, the cytotoxicity at 70.5 h was -14.6%.
